Counter-ions that a name gives are not always drawn.
test system: mouse melanoma cells (B16F10 cell line); test: Melanin inhibition assay; format: cell-based; settings: found through experimentation; H3 antagonists
Description: The assays utilized mouse melanoma cells (B16F10 cell line) which are very efficient at producing melanin. Various inhibitors and enhancers of melanin synthesis were added to the cultured cells along with experimental samples.
The B16F10 murine melanocytes were seeded into 24-well tissue culture plates and allowed to grow to confluency in complete DMEM. Solutions of H3 antagonists, Arbutin, alpha-Melanocyte Stimulating Hormone (a-MSH), and AA2G were prepared in Complete DMEM. Complete Dulbeco's Modified Eagle Media (DMEM) was used as the untreated control. Additionally, the individual components of the H3 antagonists, Yeast Peptide and Plant Extract, were also analyzed for melanogenic effects. Cells were treated for 72 hours.
For the inhibition assay, the media was removed from the wells and the monolayers were washed with phosphate buffered saline (PBS). NaOH was added to each well and 100 μL of each solution were added to a 96-well plate in duplicate. The plate was measured by optical density readings at 400 nm.
As discussed above, skin pigmentation is determined by the amount of melanin in the skin which is produced by […] melanocytes. In addition to the melanin inhibition study comparing the fermented plant abstract to AA2G, Arbutin, α-MSH, and Kojic acid, a melanin inhibition study was conducted to compare the fermented plant extract with its individual components—peptide from yeast and plant extract—to assess their ability to inhibit melanin synthesis. The melanin assay was conducted using the same methodogies as discussed above with respect to H3 antagonists, in general.

SMILES | suitability to reduce or eliminate pigmentation in a users skin
Br.Br.C[C@@H](N)Cc1c[nH]cn1 [(R)-(-)-a-Methylhistamine dihydrobromide] | suitable for use as a by-product in cosmetics to reduce or eliminate pigmentation
C[C@H]1[C@H]2CC[C@H]3[C@@H]4CC=C5C[C@@H](N(C)C)CC[C@]5(C)[C@H]4CC[C@]23CN1C [Conessine] | suitable for use as a by-product in cosmetics to reduce or eliminate pigmentation
N=C(N)SCCc1cnc[nH]1 [Imetit dihydrobromide] | suitable for use as a by-product in cosmetics to reduce or eliminate pigmentation
NCCCCCc1cnc[nH]1 [Impentamine dihydrobromide] | suitable for use as a by-product in cosmetics to reduce or eliminate pigmentation
